For 24 compounds, logP results are on record in patent US20100022559A1, “BISOXIMES AS FUNGICIDES” (BAYER CROPSCIENCE AG, priority 2006, published 2010).

The nature of one series: logP determination by HPLC on a reversed-phase column (C 18), EEC Directive 79/831 Annex V.A8. It is filed as physicochemical. The following applies: method marked [a] in Table 1. As to the method:
The stated logP values were determined in accordance with EEC Directive 79/831 Annex V.A8 by HPLC (high performance liquid chromatography) on a reversed-phase column (C 18). Temperature: 43° C.
`CC(=NOCC(C)CON=C(C)c1cccc(Cl)n1)c1cccc(Cl)n1` (centres unmarked) [compound 568]: the logP is 6.08^[a].

In the case of `CC(=NOCC(C)(C)CON=C(C)c1cccc(Cl)n1)c1cccc(Cl)n1` [compound 569], the logP is 6.50^[a].

Consider `CCc1cc(CC)nc(C(C)=NOCC(C)CON=C(C)c2cc(CC)cc(CC)n2)c1` (centres unmarked) [compound 574], for which the logP was 5.95^[a].

Take `CC(=NOCC(C)(C)CON=C(C)c1nccn1C)c1nccn1C` [compound 576]: the logP is 1.07^[a].

For `CC(=NOCC(C)(C)CON=C(C)c1cccc(-c2ccc(Cl)c(C(F)(F)F)c2)n1)c1cccc(-c2ccc(Cl)c(C(F)(F)F)c2)n1` [compound 577], the log partition coefficient (logP) was 7.36^[a].

For the compound `CC(=NOCC(C)(C)CON=C(C)c1cccc(-c2cc(Cl)cc(Cl)c2)n1)c1cccc(-c2cc(Cl)cc(Cl)c2)n1` [compound 578], the logP is on record as 7.36^a].

As for `COc1ccc(-c2cccc(C(C)=NOCC(C)(C)CON=C(C)c3cccc(-c4ccc(OC)cc4)n3)n2)cc1` [compound 579], the logP was 7.36^[a].

Consider `CC(=NOCC(C)(C)CON=C(C)c1cccc(-c2ccc(C(C)(C)C)cc2)n1)c1cccc(-c2ccc(C(C)(C)C)cc2)n1` [compound 580], for which the log partition coefficient (logP) is 7.36^[a].

For the compound `CCC1=NOC(CON=C(C)c2cccc(C)n2)(CON=C(C)c2cccc(C)n2)C1` (centres unmarked) [compound 594], the logP is 2.68^[a].

The series is the same for the next values; noted with them: method marked [b] in Table 1.
For `CC(=NOCC(C)(C)CON=C(C)c1sc(C)nc1C)c1cccc(C)n1` [compound 546], the log partition coefficient (logP) was 4.37^[b].

On to `CC(=NOCC(C)(C)CON=C(c1cccc(C)n1)C(C)C)c1cccc(C)n1` [compound 547], for which the lipophilicity (logP) was 4.57^[b].

Turning to `CC(=NOCC(C)CON=C(C)c1cccc(-c2cccc(C)n2)n1)c1cccc(-c2cccc(C)n2)n1` (centres unmarked) [compound 551], the logP was 6.24^[b].

Take `CC(=NOCC(O)CON=C(C)c1cc(C)cc(C)n1)c1cc(C)cc(C)n1` (centres unmarked) [compound 560]: the logP was 1.22[b].

Regarding `CC(=NOCC(C)CON=C(C)c1cccc(-c2ccccc2)n1)c1cccc(-c2ccccc2)n1` (centres unmarked) [compound 563], the logP was 7.36^[b].

On to `C=C(CON=C(C)c1ccc[nH]1)CON=C(C)c1ccc[nH]1` [compound 564], for which the logP was 3.23^[b].

With `C=C(CON=C(C)c1nc(OC)cc(OC)n1)CON=C(C)c1nc(OC)cc(OC)n1` [compound 565], the logP was 4.10^[b].

`C=C(CON=C(C)c1cccc(-c2ccccc2)n1)CON=C(C)c1cccc(-c2ccccc2)n1` [compound 567]: the lipophilicity (logP) worked out at 7.26.

With `CC(=NOCC(CON=C(C)c1nc(C)ccc1C)Cc1ccccc1)c1nc(C)ccc1C` (centres unmarked) [compound 590], the logP is 4.15^[b].

As for `CC(=NOCC(CON=C(C)c1nc(C)ccc1C)Cc1ccccc1)c1cccc(C)n1` (centres unmarked) [compound 591], the logP is 3.40^[b].

Still in this series, the particulars now being: method marked [c] in Table 1.
As for `CC(=NOCC(C)CON=C(C)c1cccc(-c2cccc(C)n2)n1)c1cccc(-c2cccc(C)n2)n1` (centres unmarked) [compound 551], the logP is 3.26^[c].

In the case of `CC(=NOCC(O)CON=C(C)c1cc(C)cc(C)n1)c1cc(C)cc(C)n1` (centres unmarked) [compound 560], the logP is 3.68^[c].

`CC(=NOCC(C)CON=C(C)c1cccc(-c2ccccc2)n1)c1cccc(-c2ccccc2)n1` (centres unmarked) [compound 563]: the logP is 7.36^[c].

Consider `C=C(CON=C(C)c1ccc[nH]1)CON=C(C)c1ccc[nH]1` [compound 564], for which the logP is 3.20^[c].

In the case of `C=C(CON=C(C)c1nc(OC)cc(OC)n1)CON=C(C)c1nc(OC)cc(OC)n1` [compound 565], the logP was 4.10^[c].

The compound `C=C(CON=C(C)c1cccc(-c2ccccc2)n1)CON=C(C)c1cccc(-c2ccccc2)n1` [compound 567] came in with a logP of 7.27.

In the case of `CC(=NOCC(CON=C(C)c1nc(C)ccc1C)Cc1ccccc1)c1nc(C)ccc1C` (centres unmarked) [compound 590], the logP is 6.01^[c].

Turning to `CC(=NOCC(CON=C(C)c1nc(C)ccc1C)Cc1ccccc1)c1cccc(C)n1` (centres unmarked) [compound 591], the logP was 5.07^[c].

Staying with this series, now noted: value marked [a].
Consider `CC(=NOCC(C)CON=C(C)c1csc(C)n1)c1csc(C)n1` (centres unmarked) [compound 517], for which the logP is 3.52^[a].

As to `CC(=NOCC(C)(C)CON=C(C)c1csc(C)n1)c1csc(C)n1` [compound 518], the logP was 3.99^[a].

With `CC(=NOCCCON=C(C)c1cccc(C(F)F)n1)c1cccc(C(F)F)n1` [compound 521], the logP was 5.21^[a].

In the case of `C=C(CON=C(C)c1csc(C)n1)CON=C(C)c1csc(C)n1` [compound 522], the logP is 3.22^[a].

The series is the same for the next values; noted with them: value marked [b].
On to `CC(=NOCC(C)CON=C(C)c1csc(C)n1)c1csc(C)n1` (centres unmarked) [compound 517], for which the logP is 3.52^[b].

Turning to `CC(=NOCC(C)(C)CON=C(C)c1csc(C)n1)c1csc(C)n1` [compound 518], the logP is 3.99^[b].

As to `C=C(CON=C(C)c1csc(C)n1)CON=C(C)c1csc(C)n1` [compound 522], the logP is 3.22^[b].

Turning to `CC(=NOCCCCON=C(Cc1ccccc1)c1ncccc1C)c1cccc(C)n1` [compound 528], the logP is 3.24^[b].

The logP is a log measure of how a compound divides between an organic and an aqueous phase.
